Measurements from publication PMC4708007 (Bioscience Reports, 2015).
Read-outs that look alike come from different tables or passages of the source.

How the values were obtained:
EcRelA = target: T1, EcRelA (Escherichia coli, UniProt P0AG20); type: biochemical
T1 construct: gene relA

[1] = target: Francisella tularensis RelA (Francisella tularensis subspecies tularensis SCHU S4); assay: SEC

T1 sequence (P0AG20 whole entry): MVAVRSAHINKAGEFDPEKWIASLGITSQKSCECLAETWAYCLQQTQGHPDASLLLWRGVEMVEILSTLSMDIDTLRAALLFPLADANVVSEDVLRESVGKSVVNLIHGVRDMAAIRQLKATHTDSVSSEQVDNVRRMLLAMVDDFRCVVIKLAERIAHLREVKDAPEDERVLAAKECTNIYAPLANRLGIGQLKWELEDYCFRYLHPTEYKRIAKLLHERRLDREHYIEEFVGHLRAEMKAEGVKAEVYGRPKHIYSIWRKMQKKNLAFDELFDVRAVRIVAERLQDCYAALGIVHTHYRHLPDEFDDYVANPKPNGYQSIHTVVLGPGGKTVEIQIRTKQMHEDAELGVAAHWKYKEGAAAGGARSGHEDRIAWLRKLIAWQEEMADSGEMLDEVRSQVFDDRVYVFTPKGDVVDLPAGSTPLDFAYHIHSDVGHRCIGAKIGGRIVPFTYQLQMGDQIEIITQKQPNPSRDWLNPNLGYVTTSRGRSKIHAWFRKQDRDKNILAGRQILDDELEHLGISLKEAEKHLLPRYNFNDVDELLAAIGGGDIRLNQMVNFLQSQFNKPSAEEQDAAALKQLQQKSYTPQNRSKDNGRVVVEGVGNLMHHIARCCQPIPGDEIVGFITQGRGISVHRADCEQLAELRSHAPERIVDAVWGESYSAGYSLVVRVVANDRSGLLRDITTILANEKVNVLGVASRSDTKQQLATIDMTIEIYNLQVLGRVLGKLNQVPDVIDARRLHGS

`Nc1ncnc2c1ncn2[C@@H]1O[C@H](COP(=O)(O)OP(=O)(O)OP(=O)(O)O)[C@@H](O)[C@H]1O` [ATP] was tested, and the “IP RP HPLC end-point assay of AMP formation” value (EcRelA; 2 mM ATP and 2 mM GTP, 0.5 μM RelA, with or without stalled ribosomal complexes, 15 mM MgCl2, pH 8.0, 30°C) was “Both EcRelA and FtRelA demonstrated basal levels of activity in the absence of stalled ribosomes”.

For `Nc1nc2c(ncn2[C@@H]2O[C@H](COP(=O)(O)OP(=O)(O)OP(=O)(O)O)[C@@H](O)[C@H]2O)c(=O)[nH]1` [GTP], the “IP RP HPLC end-point assay of AMP formation” value (EcRelA) was “Both EcRelA and FtRelA demonstrated basal levels of activity in the absence of stalled ribosomes”.

Compound Francisella tularensis RelA (enzyme) has a stoichiometry N [1] of 2.
